{"source": "paper PMC5133935", "about": "“Hydrostatin-TL1, an Anti-Inflammatory Active Peptide from the Venom Gland of Hydrophis cyanocinctus in the South China Sea” (International Journal of Molecular Sciences, 2016)", "key": {"TNF-α/TNFR1": {"tested_on": "TNF-α/TNFR1", "experiment": "Competitive ELISA, inhibition of TNF-α binding to TNFR1", "design": "species or system human", "conditions": "hrTNF-α 20 ng/mL, 1 h, 37 °C, n = 3", "from_the_text": "We investigated whether H-TL1 has an inhibitory effect on the binding of TNF-α to TNFRs by using ELISA. In this assay, a fixed amount of TNF-α was mixed with different concentrations of H-TL1 and applied to the TNFR-coated ELISA plates. […] SPR analysis was used to further confirm the inhibitory effects of H-TL1 on the binding of TNF-α to TNFR1. As expected, TNF-α was strongly bound with the chip-immobilized TNFR1.\nThe T7Select1-2b display vector, T7 select primers, blocking reagent, and elution buffer were purchased from Novagen (Merck, Kenilworth, NJ, USA). […] DSS (36–50 kDa) was bought from MP Biomedicals (Solon, OH, USA). MTT, actinomycin D, and LPS were purchased from Sigma-Aldrich (St. Louis, MO, USA).\nELISA plates were coated with sTNFR1 (100 ng/well in 100 μL of 100 mM sodium carbonate, pH 9.6) for 20 h at 4 °C, followed by blocking with phosphate buffered saline (PBS) containing 0.2% Tween-20 (PBST) and 1% BSA for 1 h at 37 °C. Different concentrations of H-TL1 (0–1 μM) were mixed with hrTNF-α (20 ng/mL) in PBS containing 1% BSA, and 100 μL/well was placed in the ELISA plates and incubated for 1 h at 37 °C. After washing with PBST, an HRP-labeled monoclonal antibody against TNF-α was added, followed by incubation at 37 °C for 1 h. The plates were then washed, incubated with o-phenylenediamine, and the absorbance was subsequently measured at 450 nm."}, "[1]": {"tested_on": "HEK-293 cells, TNF-α-induced expression of pro-inflammatory factors", "experiment": "Real-time PCR, TNF-α-induced gene expression in HEK-293 cells", "assay_type": "cell-based, human", "conditions": "TNF-α 20 ng/mL, 2^−ΔΔCt, GAPDH, n = 3", "from_the_text": "NF-κB activation through TNF-α/TNFR interactions upregulates the expression of chemokines and adhesion factors such as IL-8, TNF-α, ICAM-1, and VCAM-1 [25, 26]. To determine whether H-TL1 inhibits TNF-α-mediated pro-inflammatory activity, we further assessed the inhibitory activity of H-TL1 on TNF-α-induced expression of these genes in HEK-293 cells.\nThe H. cyanocinctus specimens were captured during September 2005 in the South China Sea near Guangdong Province, People’s Republic of China. After collection, the snakes were killed, and the venom glands were isolated and immediately frozen in liquid nitrogen until use. HEK-293 human embryonic kidney and L929 mouse fibroblast cell lines were obtained from ATCC and cultured in Dulbecco’s modified Eagle’s medium (DMEM, Sigma-Aldrich, St. Louis, MO, USA) containing 10% (v/v) heat-inactivated fetal bovine serum (FBS, Gibco, BRL, Grand Island, NY, USA) at 37 °C in an atmosphere of 5% CO2. The BLT5403 E. coli strain (used as the phage host strain) was from Novagen (Merck) and was cultured at 37 °C for propagation. The specific pathogen-free (SPF) male BALB/c and C57BL/6 mice (both 6–8 weeks old), weighing 20 ± 2 g were purchased from Shanghai SLAC Laboratory Animal Co., Ltd. (Shanghai, China). The mice were housed in animal facilities with 50% humidity under a 12-h light-dark cycle, fed a standard pellet diet, and provided with tap water ad libitum. The animal experimental protocols in this research, including venom gland isolation and the mouse study, were approved by the Animal Care and Use Committee of the Second Military Medical University.\nTotal RNA was extracted from colon tissue specimens or cells using Trizol reagent (Takara) according to the manufacturer’s instructions and was then reverse transcribed using random primers. Real-time PCR was performed on a StepOne Real-Time PCR System (Applied Biosystems, Foster City, CA, USA) to analyze the mRNA expression levels of IL-8, TNF-α, IL-1β, IL-6, VCAM-1, and ICAM-1. The relative fold changes of target gene expression were comparatively quantified by the 2^−ΔΔCt method. GAPDH was chosen as the internal control gene, and samples without treatment were designated as the comparing reference. Primers used in this study were based on published sequences."}, "[2]": {"tested_on": "DSS-induced inflammation of colonic mucosa, BALB/c mice", "experiment": "Colon histopathology in DSS-induced colitis", "assay_type": "in vivo, mouse", "conditions": "for colon morphology (H&E): H&E 40×", "protocol": "To induce colitis, 6–8 week old male BALB/c mice were administered 2.5% DSS solution in their drinking water for 7–8 consecutive days, ad libitum. Importantly, 30–40 kDa DSS was used to establish the animal model in this study because it is known to induce more severe colitis than 5 and 500 kDa DSS [37]. The mice were concomitantly administered H-TL1 (0.5 or 1 mg/kg) once daily for 7–8 consecutive days by intraperitoneal injection. Establishment of the DSS-induced colitis was evidenced by an increase in DAI, with associated weight loss, loose stool consistency, and presence of blood in the feces. DAI was monitored during the entire experiment and was assessed according to the method described in Table 1.\nThe colonic tissue samples were fixed in 4% neutral formalin, dehydrated with increasing concentrations of ethanol, embedded in paraffin, and subsequently cut into 5-μm thick sections, which were mounted on slides, cleared, hydrated, and stained with hematoxylin and eosin (H&E). Histological grading was assessed according to previously described criteria (Table 2), and the scoring criteria used were similar to those described previously."}, "[3]": {"tested_on": "LPS-induced lung tissue damage, C57BL/6 mice", "experiment": "Lung histopathology in LPS-induced acute shock", "assay_type": "in vivo, mouse", "conditions": "12 h after LPS; H&E 200×; n = 8", "protocol": "The LPS-induced acute shock model was established in male C57BL/6 mice (6–8 weeks old) that were randomly allocated to five groups. LPS was administered (15 mg/kg body weight) to induce acute shock. The LPS- or normal saline-treated mice were injected with 100 μL of normal saline with or without LPS intraperitoneally, while the H-TL1 and LPS-treated mice were each administered H-TL1 at three doses of 20, 40, and 80 μg/kg 1, 3, and 5 h after the LPS injection (Figure 5A). The mice were observed every 4 h to evaluate mortality.\nTo assess lung damage, lung tissues were excised, inflated with 4% neutral formalin, and H&E stained 12 h following LPS injection. The lung parenchyma was examined by light microscopy and graded based on the degree of congestion, edema, inflammation, and hemorrhage. Each characteristic was scored on a scale of 0 to 3 (0, absent; 1, light; 2, moderate; and 3, strong)."}}, "note": "Entries after “also recorded” stand apart in the source; their conditions may differ. No end group written: not given here."}
{"substance": "ATSKPSLKC-OH [H-TL1]", "values": [{"measurement": "inhibition of the binding of TNF-α with TNFR1", "setting": "TNF-α/TNFR1; H-TL1 1 μM, plate coated with sTNFR1 100 ng/well, PBS + 1% BSA, absorbance 450 nm", "result": "~60", "unit": "%"}, {"measurement": "inhibition of TNF-α/TNFR1 binding, concentration dependence", "setting": "TNF-α/TNFR1; H-TL1 0.1–1000 nM", "result": "obviously inhibits the binding of TNF-α with TNFR1; also recorded: inhibited the binding of TNF-α with TNFR1 in a concentration-dependent manner"}, {"measurement": "TNF-α-induced expression of ICAM-1", "setting": "[1]", "result": "suppresses TNF-α-induced expression of IL-8, TNF-α, ICAM-1, and VCAM-1 in a concentration-dependent manner"}, {"measurement": "TNF-α-induced expression of IL-8", "setting": "[1]", "result": "suppresses TNF-α-induced expression of IL-8, TNF-α, ICAM-1, and VCAM-1 in a concentration-dependent manner"}, {"measurement": "TNF-α-induced expression of TNF-α", "setting": "[1]", "result": "suppresses TNF-α-induced expression of IL-8, TNF-α, ICAM-1, and VCAM-1 in a concentration-dependent manner"}, {"measurement": "TNF-α-induced expression of VCAM-1", "setting": "[1]", "result": "suppresses TNF-α-induced expression of IL-8, TNF-α, ICAM-1, and VCAM-1 in a concentration-dependent manner"}, {"measurement": "colon morphology (H&E)", "setting": "[2]; H-TL1 0.5 mg/kg, 0.5 mg/kg", "result": "serious colonic damage that was comparable to that of the DSS + vehicle-treated mice; also recorded: had little effect on DSS-induced colonic inflammation"}, {"measurement": "colon morphology (H&E)", "setting": "[2]; H-TL1 1 mg/kg, 1 mg/kg", "result": "remarkably alleviated; also recorded: alleviated DSS-induced colonic inflammation"}, {"measurement": "total histological score", "setting": "[2]; H-TL1 1 mg/kg, n = 8, ** p < 0.01 vs. DSS only group", "result": "significantly reduces DSS-induced inflammation of colonic mucosa"}, {"measurement": "lung parenchymal damage and inflammatory cell infiltration", "setting": "[3]", "result": "markedly reduced lung parenchymal damage and inflammatory cell infiltration"}]}
